Assay [1] has as its target T1, 1-deoxy-D-xylulose-5-phosphate synthase (Escherichia coli (strain K12), UniProt P77488).
T1 sequence (P77488 whole entry): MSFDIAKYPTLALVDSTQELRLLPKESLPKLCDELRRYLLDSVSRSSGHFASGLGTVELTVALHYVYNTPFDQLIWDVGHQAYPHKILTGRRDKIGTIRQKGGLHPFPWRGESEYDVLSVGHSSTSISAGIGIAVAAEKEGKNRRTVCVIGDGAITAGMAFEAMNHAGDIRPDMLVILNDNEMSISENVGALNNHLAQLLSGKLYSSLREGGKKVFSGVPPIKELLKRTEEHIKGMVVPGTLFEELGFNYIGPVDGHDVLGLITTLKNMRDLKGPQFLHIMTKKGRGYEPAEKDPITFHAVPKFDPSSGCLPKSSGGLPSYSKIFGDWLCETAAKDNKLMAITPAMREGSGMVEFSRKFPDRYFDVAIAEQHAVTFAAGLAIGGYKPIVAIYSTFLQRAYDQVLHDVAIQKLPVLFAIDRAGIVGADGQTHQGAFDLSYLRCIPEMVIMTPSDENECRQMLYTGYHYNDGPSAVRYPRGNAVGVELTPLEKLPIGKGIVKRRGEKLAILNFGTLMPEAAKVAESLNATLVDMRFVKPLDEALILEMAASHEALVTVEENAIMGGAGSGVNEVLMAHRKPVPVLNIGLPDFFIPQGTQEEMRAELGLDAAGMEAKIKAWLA
In words: Competitive inhibition of ThDP-dependent Escherichia coli DXP synthase using pyruvate as substrate assessed as NADPH consumption by spectrophotometric coupled assay.

A short description of assay [2]: Inhibition of ThDP-dependent pyruvate dehydrogenase E1 subunit in porcine heart using pyruvate as substrate by spectrophotometric coupled assay. Set-up: species or system Sus scrofa.
A short description of assay [3]: Inhibition of ThDP-dependent Saccharomyces cerevisiae transketolase by spectrophotometric coupled assay.
Assay [4] is described as follows: Selectivity ratio of Ki for pyruvate dehydrogenase E1 subunit in porcine heart to Ki for Escherichia coli DXP synthase.

Some results are limits rather than exact numbers.

What is called Ki is the equilibrium dissociation constant of an inhibitor or competing ligand from its target. Take `CCOP(=O)(O)C(C)=O`: the values for the Ki in assay [1], in assay [2] and in assay [3] were 6.7 µM, 46.6 µM and > 1000 µM, respectively.
Turning to `CCCCOP(=O)(O)C(C)=O`, in assay [4], the Ratio Ki amounted to 60. Moreover, the Ki is 5.6 µM in assay [1], 335 µM in assay [2] and > 1000 µM in assay [3].
Regarding `CCC(=O)P(=O)(O)OC`, the Ki in assay [1] is 258 µM; in assay [2], > 1000 µM; in assay [3] it was > 1000 µM.
On to `CCCC(=O)P(=O)(O)OC`, for which the Ki in assay [1], in assay [2] and in assay [3] was > 1000 µM each time.
Turning to `CCCCC(=O)P(=O)(O)OC`, the Ki in assay [1], in assay [2] and in assay [3] was > 1000 µM each time.
For `COP(=O)(O)C(C)=O`, the Ratio Ki in assay [4] amounted to 31. For the same compound, the values for the Ki in assay [1], in assay [2] and in assay [3] were 0.96 µM, 29.9 µM and > 1000 µM, respectively.

The values are drawn from ChEMBL document CHEMBL3217661, “Selective inhibition of E. coli 1-deoxy-D-xylulose-5-phosphate synthase by acetylphosphonates()” (Medchemcomm, 2012).
